Counter-ions that a name gives are not always drawn. Like-named read-outs stand apart in the source and are kept apart here.
Legend:
[1] = system: apomorphine-induced gnaw-compulsion; experiment: Apomorphine antagonism in rats (gnaw-compulsion); format: in vivo, male rats (Wistar/Af/Han/Mo)(Han 67) SPF; details: for ED50: apomorphine 10 mg/kg s.c. 2 h later
Description: (§1) Alpha-clopenthixol and its decanoic acid ester have been tested for neuroleptic activity with standard reliable test methods. In the testing alpha- and beta-clopenthixol (alpha-CPT and beta-CPT) have been compared with a sample of clopenthixol (CPT) containing 34% alpha-CPT as determined by I.R. spectrophotometry.
The test method used is a slight modification of the test described by Janssen, P.A.J., Niemegeers, C.J.E. and Schellekens, K.H.L., Arzneimittel-Forschung, 1965, 15, 104-117. Male rats (Wistar/Af/Han/Mo)(Han 67) SPF, 230-270 g) were given test substance intraperitoneally (9 animals per group). Two hours later apomorphine (10 mg/kg) was injected subcutaneously and the animals were placed in individual cages for one hour. A cage consisted of a 30 cm high perspex box (12 × 25 cm), without bottom and lid, which during the experiment was placed on corrugated paper. […] Percentage non-biters was plotted on log-probit paper against dose and the ED50 was read from the diagram.

[2] = system: methylphenidate-induced stereotyped gnawing; experiment: Methylphenidate antagonism in mice (stereotyped gnawing); format: in vivo, male mice (NMRI/BOM SPF)
Description: as §1
Pedersen V. and A. V. Christensen: "Antagonism of methylphenidate-induced stereotyped gnawing in mice". Acta pharmacol. et toxicol. 1972, 31, 488-496.
Male mice (NMRI/BOM SPF, 18-25 g) were given an intraperitoneal dose of test compound. Two hours later 60 mg/kg of methylphenidate hydrochloride were injected subcutaneously, and immediately thereafter the animals were placed in cages, 2 mice in each cage, for 1 hour. The cages which during the experiment were placed on corrugated paper, are described under apomorphine antagonism on page 4. In this situation control mice, when given this dose of methylphenidate, will bite the corrugated paper (gnaw-compulsion). All compounds were tested at 5 dose levels using 5 pairs of mice per dose. Percentage non-biters was plotted on log.-probit paper against dose and approximate ED50 values were read from the diagrams.

mice = experiment: Acute toxicity upon intravenous injection in mice; format: in vivo, male mice (NMRI/BOM SPF); details: i.v.; for LD50: fasted 24 hours
Protocol: (§2) Acute toxicity upon intravenous injection has been tested using groups of five male mice (NMRI/BOM SPF, 18-25 g), fasted for 24 hours. Three or four dose-levels were needed to determine LD50 values according to Miller and Tainter. Estimation of the ED50 and its error by means of logarithmicprobit graph paper.

[3] = system: apomorphine-induced vomiting in dogs; experiment: Apomorphine antagonism in dogs (vomiting); format: in vivo, Adult purebred Beagles
Protocol: Adult purebred Beagles of either sex from our own stock were used.
Four dogs were used for each dose level of the drug, which was injected subcutaneously at the back of the neck. At different times after the drug administration the dogs were then challenged with apomorphine according to an "up and down"-schedule using the dose-range 25-400 μg/kg i.v. geometrically spaced. […] In this way it was possible to estimate at which level of apomorphine the dogs were protected at a given time. The dogs were fed half an hour before testing to secure an easy vomiting act.

[4] = Acute toxicity upon intravenous injection in mice; format: in vivo, male mice (NMRI/BOM SPF); details: mouse, in vivo, iv, fasted 24 hours
Protocol: as §2

human beings = experiment: Administration to human beings (neuroleptic action); format: in vivo; details: single intramuscular injection of about 20 - 100 mg in a light vegetable oil
Description: Alpha-clopenthixol or an ester thereof and the non-toxic acid addition salts thereof (in the following collectively called "active ingredients") may be administered to animals such as dogs, cats, horses, sheeps or the like, including human beings, both orally and parenterally, and may be used for example in the form of tablets, capsules, powders, syrups or in the form of the usual sterile solutions for injection. Results upon administration to human beings have been very gratifying.
Results upon administration to human beings of the compositions of the invention have been very gratifying. Preferably, however, the compositions are in the form of sterile solutions or suspensions for injection, and in a preferred embodiment of the invention injectable solutions may be prepared from a non-toxic injectable fat or oil, e.g. light vegetable oil, sesam oil, olive oil, arachis oil or ethyl oleate, and they may additionally contain gelling agents, e.g. aluminium stearate, to delay absorption within the body. Such oily solutions have a very prolonged activity when […] intramuscularly, and satisfactory neuroleptic action has been produced by a single intramuscular injection of about 20 - 100 mg of Lu 8- 008 dissolved in a light vegetable oil for as long as 2-4 weeks.

[5] = dogs, 10 mg/kg s.c., aqueous solution
[6] = dogs, 10 mg/kg s.c., depot-preparation
[7] = dogs, both dose levels (10 and 20 mg/kg s.c.)

Compound: Cl.Cl.OCCN1CCN(CCC=C2c3ccccc3Sc3ccc(Cl)cc32)CC1 [CPT 2 HCl, 2-chloro-9-[3'-(N'-2-hydroxyethylpiperazino-N)-propylidene]-thiaxanthene]
- % Non-biters ([1]; 2.5 mg/kg i.p.): 33%
- % Non-biters ([1]; 5 mg/kg i.p.): 44%
- % Non-biters ([1]; 10 mg/kg i.p.): 67%
- % Non-biters ([1]; 20 mg/kg i.p.): 78%
- ED50 ([1]; i.p.): 5.5 mg/kg i.p.
- % Non-biters ([2]; 0.63 mg/kg i.p.): 20%
- % Non-biters ([2]; 1.25 mg/kg i.p.): 60%
- % Non-biters ([2]; 2.5 mg/kg i.p.): 80%
- % Non-biters ([2]; 5 mg/kg i.p.): 100%
- % Non-biters ([2]; 10 mg/kg i.p.): 100%
- ED50 (approximate) ([2]; i.p., methylphenidate hydrochloride 60 mg/kg s.c. 2 h later): 1.2 mg/kg i.p.
- LD50 (mice): 111 ± 10 mg/kg i.v.
- duration of protection against apomorphine ([3]; dogs, 10 mg/kg s.c.): 3 days
- duration of heavy sedation [3, 5]: about 24 hours
- time p.i. at which maximal protection against apomorphine was afforded [3, 5]: 4 h
- maximal level of protection against apomorphine (times threshold) ([3]; dogs, 10 mg/kg s.c., aqueous solution, 4 hours p.i.): about 16 times threshold
- protection against apomorphine at day 3 ([3]; dogs, 10 mg/kg s.c., aqueous solution, day 3): restricted to the threshold dose of apomorphine
- protection against apomorphine at day 4 ([3]; dogs, 10 mg/kg s.c., aqueous solution, day 4): returned to control level
- sedation ([3]; dogs, 10 mg/kg s.c., aqueous solution, from 4 h p.i.): heavily sedated

Compound: OCCN1CCN(CCC=C2c3ccccc3Sc3ccc(Cl)cc32)CC1 [beta-CPT 2 HCl]
- % Non-biters ([1]; 10 mg/kg i.p., 10 mg/kg): 11%
- % Non-biters ([1]; 20 mg/kg i.p.): 0%
- % Non-biters ([1]; 40 mg/kg i.p.): 11%
- % Non-biters ([1]; 80 mg/kg i.p.): 11%
- ED50 ([1]; i.p.): none
- % Non-biters ([2]; 5 mg/kg i.p., 5 mg/kg): 60%
- % Non-biters ([2]; 10 mg/kg i.p.): 20%
- % Non-biters ([2]; 20 mg/kg i.p.): 100%
- % Non-biters ([2]; 40 mg/kg i.p.): 80%
- % Non-biters ([2]; 80 mg/kg i.p.): 80%
- LD50 (mice): 134 ± 10 mg/kg i.v.

Compound: OCCN1CCN(CCC=C2c3ccccc3Sc3ccc(Cl)cc32)CC1 [beta-CPT, beta-isomer of 2-chloro-9-[3'-(N'-2-hydroxyethylpiperazino-N)-propylidene]-thiaxanthene]
- apomorphine antagonism, in words ([1]; doses as high as 80 mg/kg i.p.): almost completely inactive
- inhibition of methylphenidate-induced compulsive gnawing, in words ([2]; 20 mg/kg i.p.): complete inhibition
- inhibition of methylphenidate-induced compulsive gnawing, in words ([2]; doses higher and lower than 20 mg/kg i.p.): only partial inhibition
- acute toxicity compared, in words (mice; vs alpha-isomer and the mixture): somewhat less toxic than the alpha-isomer and the mixture

Compound: CN1CCc2cccc3c2[C@H]1Cc1ccc(O)c(O)c1-3 [apomorphine]
- minimal effective dose ([3]; Canis lupus familiaris, iv, Beagle dogs, read-out: threshold-dose of apomorphine for provoking vomiting): 0.025 mg/kg

Compound: OCCN1CCN(CCC=C2c3ccccc3Sc3ccc(Cl)cc32)CC1 [alpha-CPT 2 HCl, alpha-isomer of 2-chloro-9-[3'-(N'-2-hydroxyethylpiperazino-N)-propylidene]-thiaxanthene]
- % Non-biters ([1]; 1.25 mg/kg i.p.): 11%
- % Non-biters ([1]; 2.5 mg/kg i.p.): 44%
- % Non-biters ([1]; 5 mg/kg i.p.): 100%
- % Non-biters ([1]; 10 mg/kg i.p., 10 mg/kg): 100%
- ED50 ([1]; Rattus norvegicus, ip, read-out: ED50): 2.4 mg/kg
- % Non-biters ([2]; 0.31 mg/kg i.p.): 20%
- % Non-biters ([2]; 0.63 mg/kg i.p.): 60%
- % Non-biters ([2]; 1.25 mg/kg i.p.): 60%
- % Non-biters ([2]; 2.5 mg/kg i.p.): 100%
- % Non-biters ([2]; 5 mg/kg i.p., 5 mg/kg): 100%
- ED50 ([2]; Mus musculus, ip, methylphenidate hydrochloride 60 mg/kg s.c. 2 h later, read-out: ED50 (approximate)): 0.65 mg/kg
- LD50 [4]: 105 ± 10 mg/kg

Compound: OCCN1CCN(CCC=C2c3ccccc3Sc3ccc(Cl)cc32)CC1 [alpha-CPT, alpha-isomer of 2-chloro-9-[3'-(N'-2-hydroxyethylpiperazino-N)-propylidene]-thiaxanthene]
- activity relative to CPT (times more active) ([1]; i.p., vs CPT): 2- 3 times
- activity relative to CPT ([2]; i.p., vs CPT (containing 34% alpha-CPT)): about twice as active as CPT

Compound: CCCCCCCCCC(=O)OCCN1CCN(CCC=C2c3ccccc3Sc3ccc(Cl)cc32)CC1 [Lu 8-008, alpha-isomer of the decanoic acid ester of 2-chloro-9-[3'(N'-2-hydroxyethylpiperazino-N)-propylidene]-thiaxanthene]
- duration of protection against apomorphine ([3]; dogs, 10 mg/kg s.c.): 14 days
- maximal level of protection (times threshold dose of apomorphine) ([3]; dogs, 10 mg/kg s.c., 5% solution): 2 times threshold
- maximal level of protection (times threshold dose of apomorphine) ([3]; dogs, 10 mg/kg s.c., 10% solution): 4 times threshold
- sedation [3, 6]: at no time displayed any signs of sedation
- time course of protection level [3, 6]: reached smoothly during the first week p.i., and then declined smoothly during the second week
- prolongation of the protection against apomorphine, in words ([3]; dogs, 10 mg/kg s.c., depot-preparation, 5% or 10% solution): considerable prolongation of the protection against apomorphine
- duration of protection against apomorphine ([3]; dogs, 20 mg/kg s.c., depot-preparation): 3 weeks
- maximal level of protection (times threshold) ([3]; dogs, 20 mg/kg s.c., during the first week): 8 times threshold
- sedation ([3]; dogs, 20 mg/kg s.c., first week): slightly sedated
- duration of protection, 10% solution compared with 5% solution [3, 7]: the duration was equal
- maximal protection, 10% solution compared with 5% solution [3, 7]: higher and/or more persisting maximal protection against apomorphine
- duration of satisfactory neuroleptic action (human beings): 2-4 weeks

— patent US4038395A, “Compositions of and method of treating with the alpha-isomer of 2-chloro-9-[3'-(N'-2-hydroxyethylpiperazino-N)-propylidene]-thiaxanthene , carboxylic acid esters thereof and acid addition salts of these compounds” (Kefalas A/S, priority 1973, dated 1977)
